Measurements from patent US20110281949A1, “METHODS AND COMPOSITIONS FOR TREATING NEURONAL DAMAGE AND MODULATING TRANSIENT RECEPTOR POTENTIAL CHANNELS” (priority 2008, published 2011).
“Also recorded” adds a separate entry of the source.

How the values were obtained:
[1] = target: T1, native TRPL channels (Drosophila melanogaster, UniProt P48994); experiment: Light-induced current (LIC) in isolated ommatidia of trp^P343 mutant (native TRPL); assay type: cell-based; details: trp^P343 mutant photoreceptor cells, 500 μM
T1 construct: from tissue; host or cells: dissociated ommatidia of newly emerged white-eyed trpP343 flies
T1 sequence (P48994 1-1124): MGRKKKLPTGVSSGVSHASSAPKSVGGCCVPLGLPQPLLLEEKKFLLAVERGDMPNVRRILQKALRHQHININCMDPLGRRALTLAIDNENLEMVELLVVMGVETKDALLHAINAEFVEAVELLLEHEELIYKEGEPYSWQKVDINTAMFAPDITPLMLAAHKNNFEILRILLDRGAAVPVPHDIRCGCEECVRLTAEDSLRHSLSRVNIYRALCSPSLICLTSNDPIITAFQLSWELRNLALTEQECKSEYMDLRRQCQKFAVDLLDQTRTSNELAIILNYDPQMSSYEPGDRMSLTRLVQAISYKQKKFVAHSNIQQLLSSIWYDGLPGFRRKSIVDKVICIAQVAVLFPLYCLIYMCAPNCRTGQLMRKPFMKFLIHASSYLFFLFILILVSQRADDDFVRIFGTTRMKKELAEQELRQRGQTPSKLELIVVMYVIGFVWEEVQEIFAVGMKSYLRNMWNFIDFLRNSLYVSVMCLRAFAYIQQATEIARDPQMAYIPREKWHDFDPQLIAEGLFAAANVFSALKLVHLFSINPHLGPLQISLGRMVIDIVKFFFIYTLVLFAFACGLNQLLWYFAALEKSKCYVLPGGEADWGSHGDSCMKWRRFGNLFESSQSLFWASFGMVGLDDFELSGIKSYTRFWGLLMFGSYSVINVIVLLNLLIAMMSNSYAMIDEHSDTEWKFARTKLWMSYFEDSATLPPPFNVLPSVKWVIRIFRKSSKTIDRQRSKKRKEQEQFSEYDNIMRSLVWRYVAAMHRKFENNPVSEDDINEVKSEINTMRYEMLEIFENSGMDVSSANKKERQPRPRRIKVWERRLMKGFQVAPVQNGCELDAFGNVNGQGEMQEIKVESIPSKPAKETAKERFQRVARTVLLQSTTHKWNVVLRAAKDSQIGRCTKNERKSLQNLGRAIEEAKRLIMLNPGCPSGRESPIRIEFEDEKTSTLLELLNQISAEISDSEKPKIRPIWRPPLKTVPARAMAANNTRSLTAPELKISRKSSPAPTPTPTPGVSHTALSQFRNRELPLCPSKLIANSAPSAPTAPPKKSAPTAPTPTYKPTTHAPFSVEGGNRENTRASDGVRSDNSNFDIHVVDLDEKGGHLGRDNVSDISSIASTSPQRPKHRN
Source text: Series resistance was compensated to ˜80%.
All solutions were titrated to pH 7.15. […] All solutions were titrated to pH 7.2. […] Chemicals were applied via the perfusion system.

[2] = system: TRPV3; details: literature; cited from earlier work
[3] = target: T2, TRPM7 (Mus musculus, UniProt Q923J1); details: 500 μM
[4] = system: TRPM7; details: 500 μM
[5] = target: T2, TRPM7; experiment: cell-based; details: read-out: Inhibition of total presynaptic strength (S)
[6] = target: T3, TRPL channels (Drosophila melanogaster, UniProt P48994); experiment: Whole-cell patch clamp of TRPL channels expressed in S2 cells
T3 sequence (P48994 1-1124): T1 sequence (P48994 1-1124)
Method: Schneider 2 cells were grown in 25 cm^2 flasks at 25° C. in Schneider medium (Beit HaEmek biological industries, Israel) supplemented with 10% fetal bovine serum (FBS) and 1% pen-strep reagent.
24 hours prior to the experiment, 500 μM CuSO4 was added to the medium of the S2 cells to induce expression of the channels. […] Currents were recorded at room temperature using borosilicate patch pipettes of 5-8 MΩ and an Axopatch 1D (Molecular Devices, Inc.) voltage-clamp amplifier. […] Currents were filtered using the 8-pole low pass Bessel filter of the patch-clamp amplifier at 5 kHz and sampled at 20 kHz. To measure I-V curves with minimal distortions, only cells with low (<10 MΩ) series resistance were used, and series resistance was compensated to ˜80%.
For S2 cells, the extracellular solution contained in mM: 150 NaCl, 5 KCl, 4 MgCl2, 10 TES, 25 proline, 5 alanine and 0.5 EGTA. The intracellular solution contained in mM: 130 K-gluconate, 10 TES, 2 MgCl2, 4 Mg-ATP and 0.4 Na-GTP. […] All solutions were titrated to pH 7.2. Cells were perfused via a BPS-8 valve control system (Scientific Instruments) at a rate of ˜30 chamber volumes per minute. Chemicals were applied via the perfusion system.

[7] = target: T2, TRPM7; experiment: Whole-cell patch clamp of TRPM7 expressed in HEK cells; assay type: cell-based, mammalian; design: expressed in transfected cells; host or cells: HEK / HEK293 cells, transient, TransIT reagent (Mirus)
Method: Human embryonic kidney (HEK) cells were grown in 25 cm^2 flasks at 37° C. in Dulbecco's Modified Eagle's Medium (DMEM) (Beit Haemek biological industries, Israel) supplemented with 10% FBS, 1% pen-strep and 1% L-Glutamine. TRPM7 (GenBank accession number NM—021450; SEQ ID No: 19; provided by David Clapham) and pIRES-eGFP were transiently expressed using TransIT™ reagent (Mirus).
Cells were seeded on polylysine-coated plates at a confluence of 25%, 24-72 hours prior to the experiment. […] Whole-cell, patch-clamp recordings were performed as described (Parnas et al, 2007). Currents were recorded at room temperature using borosilicate patch pipettes of 5-8 MΩ and an Axopatch 1D (Molecular Devices, Inc.) voltage-clamp amplifier. Voltage-clamp pulses were generated and data captured using a Digidata 1322A interfaced to a computer running the pClamp 9.2 software (Axon Instruments, Inc.). Currents were filtered using the 8-pole low pass Bessel filter of the patch-clamp amplifier at 5 kHz and sampled at 20 kHz. To measure I-V curves with minimal distortions, only cells with low (<10 MΩ) series resistance were used, and series resistance was compensated to ˜80%.
For HEK cells, the extracellular solution contained in mM: 140 NaCl, 2.8 KCl, 2 CaCl2, 1 MgCl2, HEPES and 10 glucose. The intracellular solution contained in mM: 140 Cs-Aspartate, 8 NaCl, 10 EGTA and 10 HEPES. All solutions were titrated to pH 7.2. Cells were perfused via a BPS-8 valve control system (Scientific Instruments) at a rate of ˜30 chamber volumes per minute. Chemicals were applied via the perfusion system.

[8] = target: TRPM8 (Homo sapiens, UniProt Q7Z2W7); details: literature (Vogt-Eisele 2007); cited from earlier work
[9] = system: closed head injury; experiment: Mouse model of closed head injury, Neurological Severity Score (NSS); assay type: in vivo; details: subcutaneous 0.751 μg/gr body weight 15 min after injury, up to 27 days
Source text: Brain injury is known to disrupt the blood-brain barrier and to induce edema and release auto-destructive factors that produce delayed neuronal damage and neuronal cell death. An experimental model of […] (CHI) in the rat and mouse has been developed and studied mechanistically (Beni-Adani et al 2001; Chen et al 1996). In the present study, CHI was induced under ether anesthesia by allowing a metal rod (333 g) to fall over the exposed skull covering the left hemisphere in the midcornal plane of a 35-45 g Mouse. […] Neurobehavioral evaluations were performed over the next 27 d.
A Neurological Scoring System (NSS) was used to determine ability to perform 10 different behavioral tasks, involving motor ability, balance, and alertness of the mice (Table 4). One point is assigned for failing to perform each task; thus, a normal uninjured mouse scores 0. Injury severity is defined by initial NSS, which is evaluated 1 h post-CHI and referred to as “NSS1.” This value is also a reliable predictor of clinical outcome, with fatal or near-fatal injury corresponding to NSS1 of 7-8; moderate injury to NSS1 of 5-6, and mild injury to NSS1 of <4.

T2 sequence (Q923J1 whole entry): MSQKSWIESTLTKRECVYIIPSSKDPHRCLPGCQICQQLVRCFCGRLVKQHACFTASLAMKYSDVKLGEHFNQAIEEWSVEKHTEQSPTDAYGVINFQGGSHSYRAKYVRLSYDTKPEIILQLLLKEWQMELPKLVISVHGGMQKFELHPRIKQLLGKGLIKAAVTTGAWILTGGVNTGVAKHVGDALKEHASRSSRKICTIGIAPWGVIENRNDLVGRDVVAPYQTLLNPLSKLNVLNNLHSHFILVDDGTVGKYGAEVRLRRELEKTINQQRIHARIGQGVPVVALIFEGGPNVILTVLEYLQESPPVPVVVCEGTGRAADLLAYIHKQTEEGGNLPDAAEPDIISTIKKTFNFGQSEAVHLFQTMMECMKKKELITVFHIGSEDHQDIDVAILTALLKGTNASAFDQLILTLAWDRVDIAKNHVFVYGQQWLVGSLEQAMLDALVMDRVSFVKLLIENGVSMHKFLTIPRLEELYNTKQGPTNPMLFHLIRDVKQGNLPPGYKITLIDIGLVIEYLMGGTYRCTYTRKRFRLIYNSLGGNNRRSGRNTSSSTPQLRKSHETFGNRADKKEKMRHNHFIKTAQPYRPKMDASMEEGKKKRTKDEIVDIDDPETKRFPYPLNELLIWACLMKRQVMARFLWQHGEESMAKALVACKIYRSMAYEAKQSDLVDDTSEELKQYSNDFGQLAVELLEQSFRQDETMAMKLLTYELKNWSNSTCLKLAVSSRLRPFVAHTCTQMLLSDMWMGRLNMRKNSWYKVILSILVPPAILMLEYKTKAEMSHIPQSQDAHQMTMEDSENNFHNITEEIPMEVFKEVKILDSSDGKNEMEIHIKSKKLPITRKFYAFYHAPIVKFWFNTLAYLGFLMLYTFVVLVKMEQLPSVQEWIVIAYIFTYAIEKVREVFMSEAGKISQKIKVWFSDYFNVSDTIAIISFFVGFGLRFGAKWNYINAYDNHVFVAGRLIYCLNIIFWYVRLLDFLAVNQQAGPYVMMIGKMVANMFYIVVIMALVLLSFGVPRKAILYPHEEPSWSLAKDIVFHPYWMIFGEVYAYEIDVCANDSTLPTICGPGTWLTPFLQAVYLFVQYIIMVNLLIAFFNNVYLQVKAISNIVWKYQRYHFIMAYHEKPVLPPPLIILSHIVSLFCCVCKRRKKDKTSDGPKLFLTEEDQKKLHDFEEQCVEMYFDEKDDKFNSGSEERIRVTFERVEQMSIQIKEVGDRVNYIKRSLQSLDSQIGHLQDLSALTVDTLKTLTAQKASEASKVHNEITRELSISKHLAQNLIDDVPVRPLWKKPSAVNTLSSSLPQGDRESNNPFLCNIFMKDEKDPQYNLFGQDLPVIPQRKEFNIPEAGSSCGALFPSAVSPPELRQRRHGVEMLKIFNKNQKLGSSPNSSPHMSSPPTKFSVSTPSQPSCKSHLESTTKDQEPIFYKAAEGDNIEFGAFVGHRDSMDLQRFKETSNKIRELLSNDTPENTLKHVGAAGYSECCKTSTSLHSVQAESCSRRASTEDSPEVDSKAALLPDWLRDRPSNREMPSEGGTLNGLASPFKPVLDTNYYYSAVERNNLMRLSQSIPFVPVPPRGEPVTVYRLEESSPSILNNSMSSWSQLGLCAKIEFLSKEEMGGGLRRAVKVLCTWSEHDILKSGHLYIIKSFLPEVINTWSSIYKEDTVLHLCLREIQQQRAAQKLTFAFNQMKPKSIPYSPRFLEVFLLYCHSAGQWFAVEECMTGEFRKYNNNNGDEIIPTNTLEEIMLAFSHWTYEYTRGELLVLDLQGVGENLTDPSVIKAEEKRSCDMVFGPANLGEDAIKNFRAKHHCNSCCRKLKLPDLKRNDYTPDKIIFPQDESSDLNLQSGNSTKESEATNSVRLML
Sequence of TRPM8 (Q7Z2W7 whole entry, species assumed): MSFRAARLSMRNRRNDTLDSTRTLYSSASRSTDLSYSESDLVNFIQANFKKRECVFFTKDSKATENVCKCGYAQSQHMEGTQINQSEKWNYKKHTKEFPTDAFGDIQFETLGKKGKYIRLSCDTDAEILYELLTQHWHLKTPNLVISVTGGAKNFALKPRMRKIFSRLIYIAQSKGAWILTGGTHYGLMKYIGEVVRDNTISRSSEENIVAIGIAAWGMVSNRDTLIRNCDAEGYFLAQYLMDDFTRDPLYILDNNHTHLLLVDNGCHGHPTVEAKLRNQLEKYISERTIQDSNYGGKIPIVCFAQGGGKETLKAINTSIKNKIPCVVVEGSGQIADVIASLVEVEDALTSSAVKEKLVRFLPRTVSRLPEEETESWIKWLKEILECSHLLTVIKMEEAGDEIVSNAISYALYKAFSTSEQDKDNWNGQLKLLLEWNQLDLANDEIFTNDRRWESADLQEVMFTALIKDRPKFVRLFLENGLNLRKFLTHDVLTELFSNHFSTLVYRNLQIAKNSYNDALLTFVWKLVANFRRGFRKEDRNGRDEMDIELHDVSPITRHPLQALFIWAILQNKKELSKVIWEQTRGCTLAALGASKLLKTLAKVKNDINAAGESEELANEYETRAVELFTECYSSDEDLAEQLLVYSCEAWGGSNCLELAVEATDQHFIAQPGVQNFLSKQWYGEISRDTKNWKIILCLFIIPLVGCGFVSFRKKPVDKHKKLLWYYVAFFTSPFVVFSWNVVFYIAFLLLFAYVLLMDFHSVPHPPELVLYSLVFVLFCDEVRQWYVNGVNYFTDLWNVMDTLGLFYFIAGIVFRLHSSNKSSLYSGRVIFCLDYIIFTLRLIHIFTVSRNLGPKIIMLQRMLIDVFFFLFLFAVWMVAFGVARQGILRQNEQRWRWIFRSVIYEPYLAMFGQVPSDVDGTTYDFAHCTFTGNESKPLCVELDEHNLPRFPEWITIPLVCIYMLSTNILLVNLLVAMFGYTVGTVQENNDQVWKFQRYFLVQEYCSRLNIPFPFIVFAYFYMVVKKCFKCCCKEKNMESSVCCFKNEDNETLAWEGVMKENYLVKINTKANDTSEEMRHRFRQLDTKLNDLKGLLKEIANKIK

## Cc1ccc(C(C)C)cc1O [Compound IX, 5-Isopropyl-2-methylphenol]
[1]
  Effect on light-induced current (LIC) amplitude, native TRPL: dramatically reduced LIC amplitude; also recorded: inhibits the native TRPL channels
[2]
  TRPV3 activation: believed to activate TRPV3
[3]; 30 APs@1 Hz
  Effect on vesicle release in TRPM7-GFP-expressing neurons: significantly decreased vesicle release
[3]; TRPM7-GFP-expressing neurons, 73 before
  ΔF median of boutons after compound application: 75 arbitrary units
[3]; TRPM7-GFP-expressing neurons, 578 before
  Number of FM-detectable boutons after compound application: 318
[4]; control neurons, 88 before
  ΔF median of boutons after compound application: 87 arbitrary units
[4]; control neurons, 764 before
  Number of FM-detectable boutons after compound application: 845
[4]; neurons lacking TRPM7-GFP
  Effect on presynaptic activity in control neurons: did not affect presynaptic activity
  Effect on vesicle release in control neurons: did not alter vesicle release
[5]
  inhibition at 500 µM: 47 ± 3%
[6]; S2 cells
  Reversibility of effect on TRPL channel: reversibly blocked
[6]; S2 cells without TRPL expression, IX 500 μM, XVII 5 mM
  Effect on current when TRPL channels were not expressed (control): no effect
[6]; S2 cells, IX 500 μM, XIII 3 mM, XIV 1 mM, XII 2 mM, XV up to 5 mM, X 5 mM, XVI 5 mM, XVII 5 mM, XI 10 mM
  Effect on TRPL-mediated current: Large suppression of the current; also recorded: large decrease in the TRPL-dependent current
[6]; TRPL expressed in S2 cells
  TRPL Activation/Inhibition: Inhibition
[7]; HEK cells
  Reversibility of TRPM7 block: reversibly blocked activity
[7]; HEK cells expressing TRPM7, IX 500 μM
  Effect on TRPM7-mediated current: Large and dose-dependent suppression of the current; also recorded: dramatic decrease in the TRPM7 mediated current
[7]; control
  Effect in mock-transfected HEK293 cells (TRPM7 not expressed): no effect was observed
[8]
  Effect on TRPM8: only a minimal effect on TRPM8
[9]
  NSS recovery after closed head injury vs saline: NSS scores dropped significantly more; also recorded: significant protective effect from brain damage
